The values that follow come from patent JP2015020973A, “クロマン化合物塩酸塩の結晶形態及びその製造法” (Nissan Chemical Corp, priority 2013, dated 2015).

Series [1] can be described thus: Test Example 2: dissolution test, JP Pharmacopoeia dissolution test 2nd fluid (pH 6.8), paddle method. The conditions noted are these: dissolution test 2nd fluid pH 6.8, 37 °C, paddle 100 rpm, after 120 min. It counts as physicochemical.
Series [2] is described as follows: Test Example 1: dissolution test, JP Pharmacopoeia dissolution test 1st fluid (pH 1.2), paddle method. It counts as physicochemical. Conditions: dissolution test 1st fluid pH 1.2, 37 °C, paddle 100 rpm, at 60 min.

Consider `COc1cc2c(cc1NS(C)(=O)=O)OC(C)(C)[C@H](O)[C@H]2NCCc1ccccc1` (relative stereo) [フリー体, N−{(3R*,4S*)−3−ヒドロキシ−6−メトキシ−2,2−ジメチル−4−(フェネチルアミノ)クロマン−7−イル}メタンスルホンアミド], for which the figures for the dissolution rate in series [1] and in series [2] were approximately 65% and 90%, respectively.

On to `COc1cc2c(cc1NS(C)(=O)=O)OC(C)(C)[C@H](O)[C@H]2NCCc1ccccc1.Cl` (relative stereo) [A形結晶, N−{(3R*,4S*)−3−ヒドロキシ−6−メトキシ−2,2−ジメチル−4−(フェネチルアミノ)クロマン−7−イル}メタンスルホンアミド塩酸塩], for which the dissolution rate in series [1] is given as approximately 80%; in series [2], 90%.
